Data set [1] can be described thus: Test for concentration in blood (plasma of mouse, bioassay). The data set is classed as in vivo. The following applies: sc, subcutaneous, 2 mg/mouse, average on five mice; for Cmax: bioassay with Comamonas terrigena B-996, read-out: Maximum concentration; for half-life: read-out: Half period (period that elapsed until the concentration was reduced to half). As for the experimental part:
Typical species of the compounds of formula (VI-b) were each administered subcutaneously to five mice in a dose of 2 mg. After 5 minutes from the administration, a small amount of blood was periodically drawn from the eyes of the mice into a heparinized capillary tube, and centrifuged. The concentration of the compound in the supernatant liquid (plasma) was determined by a bioassay method using Comamonas terri^gena B-996.

Data set [2] relates to Staphylococcus aureus Smith strain. Briefly: Infection treating test (CD50). The following applies: in Mus musculus, sc, 2 h, mice infected intraperitoneally with 5 x 10^5 cells per mouse, subcutaneous injection two hours after the infection. The data set is classed as in vivo. Here is the method:
The in vivo activities of the compounds of formula (VI-b) were determined by using mice (five per group, male DDY mice, Shizuoka) which had been intraperitoneally infected with Staphylococcus aureus Smith strain in an amount of 5 x 10^5 cells per mouse. Two hours after the infection, an injection containing a sodium salt of each of the compounds of formula (VI-b) was subcutaneously administered to the mice.

Data set [3] concerns S. aureus. In words: Disc diffusion assay in nutrient broth containing 10% horse serum. It is filed as cell-based. From the text: The compounds of formula (I) provided by this invention show excellent antimicrobial activities in in vitro tests in horse serum as shown in Table IV below.
In general terms: A growth-free zone around the sample is the usual read-out of agar diffusion tests.

For orientation: ED50 means the dose at which the effect has come halfway, by size or by number of responders. Lower therefore signals greater potency. Consider `CC(O)[C@H]1C(=O)N2C(C(=O)O)=C(Sc3ccncc3)C[C@H]12` (relative stereo) [Table II r7 R1=-OH R2=[drawing] M=H*], for which, in data set [1], the Cmax came to 103000 ng/mL and the half-life amounted to 18 min. Moreover, it took a dose of 0.125 mg/kg to reach the 50% effect level in data set [2] (ED50).

Consider `CC(O)[C@@H]1C(=O)N2C(C(=O)O)=C(Sc3ccncc3)C[C@H]12` (relative stereo) [Table II r8 R1=-OH R2=[drawing] M=H**], for which, in data set [1], the Cmax turned out to be 29000 ng/mL and the half-life worked out at 13.5 min. This molecule also had an ED50 in data set [2] of 0.125 mg/kg.

Consider `CC(O)[C@H]1C(=O)N2C(C(=O)O)=C(Sc3ncccn3)C[C@H]12` (relative stereo) [Table II r12 R1=-OH R2=[drawing] M=H*], for which, in data set [1], the Cmax was determined as 54000 ng/mL and the half-life came to 25 min. For the same molecule, in data set [2], the ED50 is 0.25 mg/kg.

As to `CC(O)[C@@H]1C(=O)N2C(C(=O)O)=C(Sc3ncccn3)C[C@H]12` (relative stereo) [Table II r13 R1=-OH R2=[drawing] M=H**], in data set [1], the Cmax turned out to be 23300 ng/mL and the half-life amounted to 19 min. The ED50 in data set [2] turned out to be 0.25 mg/kg.

In the case of `CC(=O)NCCSC1=C(C(=O)O)N2C(=O)[C@H](C(C)O)[C@H]2C1` (some centres unmarked) [PS-3A.Na, 3-(2-acetamidoethylthio)-6-(1-hydroxyethyl)-7-oxo-1-azabicyclo[3.2.0]hept-2-ene-2-carboxylic acid, reference compound], the ED50 in data set [2] was found to be 4 mg/kg.

For the molecule `CC(=O)NCCSC1=C(C(=O)O)N2C(=O)C(C(C)O)C2C1` (centres unmarked) [PS-3B.Na, 3-(2-acetamidoethylthio)-6-(1-hydroxyethyl)-7-oxo-1-azabicyclo[3.2.0]hept-2-ene-2-carboxylic acid, reference compound], in data set [1], the Cmax was 26300 ng/mL and the half-life is 5 min.

For `CCC1C(=O)N2C(C(=O)O)=C(SCCNC(C)=O)CC12` (centres unmarked) [PS-5.Na, 3-(2-acetamidoethylthio)-6-ethyl-7-oxo-1-azabicyclo[3.2.0]hept-2-ene-2-carboxylic acid, reference compound], in data set [1], the Cmax is 40000 ng/mL and the half-life turned out to be 7 min. Further, the 50% effect level in data set [2] (ED50) was put at a dose of 1 mg/kg.

Regarding `CC(=O)NCCSC1=C(C(=O)O)N2C(=O)C(C(C)C)C2C1` (centres unmarked) [PS-6.Na, 3-(2-acetamidoethylthio)-6-isopropyl-7-oxo-1-azabicyclo[3.2.0]hept-2-ene-2-carboxylic acid, reference compound], in data set [1], the Cmax stood at 23800 ng/mL and the half-life is 5 min. In addition, in data set [2], the 50% effect level (ED50) was put at a dose of 8 mg/kg.

`CC(C)C1C(=O)N2C(C(=O)O)=C(SCCN(C)C)CC12` (centres unmarked) [R1=-CH3 R2=-CH2CH2N(CH3)2 M=H]: in data set [1], the Cmax stood at 22000 ng/mL and the half-life is 6.1 min. In addition, the ED50 in data set [2] is 2 mg/kg.

Turning to `CCC1C(=O)N2C(C(=O)O)=C(SCCN(C)C)CC12` (centres unmarked) [R1=H R2=-CH2CH2N(CH3)2 M=H], in data set [1], the Cmax amounted to 36200 ng/mL and the half-life amounted to 6 min. The molecule further returned an ED50 in data set [2] of 0.25 mg/kg.

`CCC1C(=O)N2C(C(=O)O)=C(SCCNC(=O)Cc3ccccc3)CC12` (centres unmarked) [R1=H R2=-CH2CH2NHCOCH2-[drawing] M=Na]: in data set [1], the Cmax turned out to be 2800 ng/mL and the half-life was 6 min.

As to `CCC1C(=O)N2C(C(=O)O)=C(SCCO)CC12` (centres unmarked) [R1=H R2=-CH2CH2OH M=Na], in data set [1], the Cmax came to 36900 ng/mL and the half-life was found to be 6 min. Further, the ED50 in data set [2] worked out at 1 mg/kg.

For the molecule `CCC1C(=O)N2C(C(=O)O)=C(Sc3ccncc3)CC12` (centres unmarked) [Table II r5 R1=H R2=[drawing] M=H], in data set [1], the Cmax was determined as 70700 ng/mL and the half-life came to 16 min. This molecule gave an ED50 in data set [2] of 0.063 mg/kg.

In the case of `CC(C)C1C(=O)N2C(C(=O)O)=C(Sc3ccncc3)CC12` (centres unmarked) [Table II r6 R1=-CH3 R2=[drawing] M=H], in data set [1], the Cmax came to 30700 ng/mL and the half-life is 15.2 min. Besides, in data set [2], it took a dose of 0.5 mg/kg to reach the 50% effect level (ED50).

On to `CCC1C(=O)N2C(C(=O)O)=C(Sc3ccccn3)CC12` (centres unmarked) [Table II r9 R1=H R2=[drawing] M=H], for which, in data set [1], the Cmax stood at 48400 ng/mL and the half-life stood at 29 min. The ED50 in data set [2] turned out to be 0.125 mg/kg.

With `CCC1C(=O)N2C(C(=O)O)=C(Sc3ncccn3)CC12` (centres unmarked) [Table II r10 R1=H R2=[drawing] M=H], in data set [1], the Cmax stood at 23600 ng/mL and the half-life stood at 22 min. In data set [2], this molecule returned an ED50 of 0.25 mg/kg.

`CC(C)C1C(=O)N2C(C(=O)O)=C(Sc3ncccn3)CC12` (centres unmarked) [Table II r11 R1=-CH3 R2=[drawing] M=H]: in data set [1], the Cmax is 21200 ng/mL and the half-life is 18.2 min. This molecule returned an ED50 in data set [2] of 1 mg/kg.

As for `CCC1C(=O)N2C(C(=O)O)=C(SC3CCCCC3)CC12` (centres unmarked) [Table II r14 R1=H R2=[drawing] M=Na], in data set [1], the Cmax amounted to 8240 ng/mL and the half-life was 7.2 min.

As for `CCC1C(=O)N2C(C(=O)O)=C(Sc3ccccc3)CC12` (centres unmarked) [Table II r15 R1=H R2=[drawing] M=Na], in data set [1], the Cmax worked out at 11300 ng/mL and the half-life came to 25.2 min.

Regarding `CCC1C(=O)N2C(C(=O)OC)=C(Br)CC12` (stereo not drawn) [Table IV r4 R=H X=Br M=CH3, methyl 3-bromo-6-ethyl-7-oxo-l-azabicyclo[3.2.0]hept-2-ene-2-carboxylate], in data set [3], the Inhibitory zone diameter was found to be 29.7 mm.

For the molecule `CCC1C(=O)N2C(C(=O)OCc3ccccc3)=C(Br)CC12` (centres unmarked) [Table IV r5 R=H X=Br M=[drawing]], the Inhibitory zone diameter in data set [3] was determined as 30.2 mm.

`CCC1C(=O)N2C(C(=O)OCc3ccc([N+](=O)[O-])cc3)=C(Br)CC12` (centres unmarked) [Table IV r6 R=H X=Br M=[drawing]]: in data set [3], the Inhibitory zone diameter was determined as 28.6 mm.

As to `CC(C)C1C(=O)N2C(C(=O)OCc3ccc([N+](=O)[O-])cc3)=C(Br)CC12` (centres unmarked) [Table IV r7 R=CH3 X=Br M=[drawing]], the Inhibitory zone diameter in data set [3] is 26.8 mm.

Regarding `CC(O)C1C(=O)N2C(C(=O)OCc3ccc([N+](=O)[O-])cc3)=C(Br)CC12` (centres unmarked) [Table IV r8 R=OH X=Br M=[drawing]], in data set [3], the Inhibitory zone diameter came to 31.2 mm.

The molecule `CCC1C(=O)N2C(C(=O)OC)=C(I)CC12` (stereo not drawn) [Table IV r9 R=H X=I M=CH3, methyl 3-iodo-6-ethyl-7-oxo-l-azabicyclo[3.2.0]hept-2-ene-2-carboxylate] displayed an Inhibitory zone diameter in data set [3] of 29.6 mm.

Take `CCC1C(=O)N2C(C(=O)OCc3ccccc3)=C(I)CC12` (centres unmarked) [Table IV r10 R=H X=I M=[drawing]]: the Inhibitory zone diameter in data set [3] was 30.0 mm.

On to `COC(=O)C1=C(I)CC2C(C(C)O)C(=O)N12` (centres unmarked) [Table IV r11 R=OH X=I M=CH3], for which, in data set [3], the Inhibitory zone diameter turned out to be 31.0 mm.

Source of the values: patent EP0017970A1, “Novel beta-lactam derivatives and process for production thereof” (SANRAKU-OCEAN CO., LTD., priority 1979, dated 1980).
